{
  "source": "patent US10513511B2",
  "about": "“Aqueous suspension formulation comprising 4-(4-(4-(((3R,5R)-5-((1H-1,2,4-triazol-1-yl)methyl)-5-(2,4-difluoro-phenyl)tetrahydrofuran-3-yl)methoxy)-3-methylphenyl) or a pharmaceutically acceptable salt thereof” (PULMOCIDE LIMITED, priority 2015, dated 2019)",
  "key": {"[1]": {"system": "Aspergillus fumigatus NCPF7099", "test": "Planktonic fungus growth: broth microdilution assay (NCPF7099)", "type": "cell-based", "details": "Aspergillus fumigatus, NCPF7099, n = 2-3, read-out: MIC75 Values against Aspergillus fumigatus isolate NCPF7099", "experimental": "(§1) This assay was conducted using a modified method published by EUCAST (Rodriguez-Tudela, et al., 2008). Spores of Aspergillus fumigatus (NCPF2010, NCPF7010 [methionine 220 mutation], NCPF7099 [Glycine G54 mutation]) from Public Health England, Wiltshire; TR34/L98H mutants from St Louis Hospital, Paris, France; TR46/Y121F/T289A mutants from University of Delhi, Delhi, India) were cultured in Sabouraud dextrose agar for 3 days. A stock spore suspension was prepared from a Sabouraud dextrose agar culture by washing with PBS-tween (10 mL; phosphate buffered saline containing 0.05% Tween-20, 100 U/mL penicillin and 100 U/mL streptomycin). The spore count was assessed using a Neubauer haemocytometer and then adjusted to 10^6 spores/mL with PBS. A working suspension of spores (2×10^5 spores/mL) was prepared in filter sterilised, BSA MOPS RPMI-1640 (50 mL; RPMI-1640 containing 2 mM L-glutamine, 0.5% BSA, 2% glucose, 0.165 M MOPS, buffered to pH 7 with NaOH).\n(§2) For the assay, BSA MOPS RPMI-1640 (50 μL/well) was added throughout the 384-well plate (Catalogue number 353962, BD Falcon, Oxford, UK) first. Test compounds (0.5 μL DMSO solution) were then added in quadruplicate using an Integra VIAFLO 96 (Integra, Zizers, Switzerland), and mixed well using a plate mixer. Subsequently 50 μL of the working spore suspension prepared above was added to all wells except non-spore control wells. For non-spore control wells, BSA MOPS-RPMI solution (50 μL/well) was added instead. The plate was covered with a plastic lid, and incubated (35° C. with ambient air) for 48 hr. The OD of each well at 530 nm was determined using a multi-scanner (Clariostar: BMG, Buckinghamshire, UK). The percentage inhibition for each well was calculated and the MIC50, MIC75 and MIC90 values were calculated from the concentration-response curve generated for each test compound."}, "[2]": {"system": "Aspergillus fumigatus TR46 (TR46/Y121F/T289A)", "test": "Planktonic fungus growth: broth microdilution assay (TR46)", "type": "cell-based", "details": "Aspergillus fumigatus, read-out: MIC75 Values against Aspergillus fumigatus isolate TR46", "experimental": "as §1, §2"}, "[3]": {"test": "Cell viability: resazurin assay", "type": "cell-based", "details": "human, 1 day incubation, resazurin, n = 3", "experimental": "BEAS2B cells were seeded in 384-well plates (100 μL; 3000/well/; BD Falcon, Catalogue No 353962) in RPMI-LHC8 (RPMI-1640 and LHC8 media combined in equal proportions) one day before experimentation. For cell-free control wells, RPMI-LHC8 (100 μL) was added. Test compounds (0.5 μL of a DMSO solution) were added to give a final DMSO concentration of 0.5% using an Integra VIAFLO 96 (Integra, Zizers, Switzerland). BEAS2B cells were incubated with each test compound for 1 day (37° C./5% CO2 in RPMI-LHC8). After addition of resazurin stock solution (5 μL, 0.04%) the plates were incubated for a further 4 hr (37° C./5% CO2). The fluorescence of each well at 545 nm (excitation) and 590 nm (emission) was determined using a multi-scanner (Clariostar: BMG Labtech). The percentage loss of cell viability was calculated for each well relative to vehicle (0.5% DMSO) treatment. Where appropriate, a CC50 value was calculated from the concentration-response curve generated from the concentration-response curve for each test compound."}, "[4]": {"system": "Aspergillus fumigatus NCPF7100", "test": "Planktonic fungus growth: broth microdilution assay (NCPF7100)", "type": "cell-based", "details": "Aspergillus fumigatus, NCPF7100, read-out: MIC75 Values against Aspergillus fumigatus isolate NCPF7100"}, "[5]": {"test": "Body weight loss of immunocompromised, neutropenic mice caused by A. fumigatus infection", "type": "in vivo, A/J mice", "details": "days 1, 2 and 3 (therapeutic); for Body weight loss Day 2 / Body weight loss Day 3: vs weight on day 1", "experimental": "Aspergillus fumigatus (ATCC 13073 [strain: NIH 5233], American Type Culture Collection, Manassas, Va., USA) was grown on Malt agar (Nissui Pharmaceutical, Tokyo, Japan) plates for 6-7 days at RT (24±1° C.). Spores were aseptically dislodged from the agar plates and suspended in sterile distilled water with 0.05% Tween 80 and 0.1% agar. On the day of infection, spore counts were assessed by haemocytometer and the inoculum was adjusted to obtain a concentration of 1.67×10^8 spores mL^−1 of physiological saline. […] On day 0, animals were infected with the spore suspension (30 μL intra-nasally).\nTest substances were administered intra-nasally (35 μL of a suspension (0.0032-10.0 mg/mL of drug substance in physiological saline) once daily, on days 1, 2 and 3 only (thereby representing a therapeutic treatment regimen). For extended prophylactic treatment, test compounds (35 μL of a suspension of 0.0032 or 0.016 mg/mL in physiological saline) were administered intra-nasally once daily for seven days. One group was dosed 30 min before infection on day 0 but not subsequently, while a second group was further dosed on days 1, 2 and 3 after infection. The effects of these treatment paradigms were compared with those obtained when treatment was restricted in other groups to either one day or 30 min before inoculation and then on days 1, 2 and 3 post infection in both cases. In a final group, dosing was limited still further with animals dosed twice, one day and 30 min before infection only.\nAnimal body weights were monitored daily and at 6 hr after the last dose of drug was administered on day 3, the animals were anesthetised, the tracheas cannulated and BALF blood and lung tissue were collected. The levels of IL-6 and TNFα in serum were determined using Quantikine® mouse IL-6 or TNF-α ELISA kit (R&D systems, Inc., Minneapolis, Minn., USA) respectively. Aspergillus GM in serum was determination using Platelia GM-EIA kits (Bio-Rad Laboratories, Redmond, Wash., USA). Cut-off index (COI) was calculated by the formula: Cut-off index=OD in sample/OD in cut-off control provided in kit. For tissue fungal load assays, 100 mg of lung tissue was removed aseptically and homogenized in 0.2 mL of 0.1% agar in sterile distilled water. Serially diluted lung homogenates were plated on Malt agar plates (50 μL/plate), and incubated at 24±1° C. for 72 to 96 h. The colonies of A. fumigatus on each plate were counted and the fungal titre presented herein as CFUs per gram of lung tissue."}, "[6]": {"details": "Compound (Ia) 0.0032 mg/mL intranasal"}, "[7]": {"details": "Compound (Ia) 0.016 mg/mL intranasal"}, "[8]": {"details": "Compound (Ia) 0.08 mg/mL intranasal"}, "[9]": {"details": "Posaconazole 0.4 mg/mL intranasal"}, "[10]": {"details": "Posaconazole 2 mg/mL intranasal"}, "[11]": {"details": "Posaconazole 10 mg/mL intranasal"}},
  "note": "Where two headings read alike, the source gives them in different places.",
  "data": [
    {"smiles": "C[C@@H](c1ncncc1F)[C@](O)(Cn1cncn1)c1ccc(F)cc1F", "note": "[Voriconazole]", "values": [
      {"measurement": "MIC", "setting": "[1]", "value": 0.113, "unit": "µM"},
      {"measurement": "MIC", "setting": "[2]", "value": "> 2.86", "unit": "µM"},
      {"measurement": "CC50 at 1 day", "setting": "[3]; read-out: BEAS2B Cell Viability CC50", "value": "> 28.6", "unit": "µM"},
      {"measurement": "MIC", "setting": "[4]", "value": 0.543, "unit": "µM"}
    ]},
    {"smiles": "Cc1cc(N2CCN(c3ccc(C(=O)N[C@H]4CCCC[C@@H]4O)cc3)CC2)ccc1OC[C@@H]1CO[C@@](Cn2cncn2)(c2ccc(F)cc2F)C1", "note": "[Compound (Ia), 4-(4-(4-(((3R,5R)-5-((1H-1,2,4-triazol-1-yl)methyl)-5-(2,4-difluorophenyl)tetrahydrofuran-3-yl)methoxy)-3-methylphenyl)piperazin-1-yl)-N-((1S,2S)-2-hydroxycyclohexyl) benzamide]", "values": [
      {"measurement": "MIC", "setting": "[1]", "value": 0.01, "unit": "µM"},
      {"measurement": "MIC", "setting": "[2]", "value": 0.093, "unit": "µM"},
      {"measurement": "CC50 at 1 day", "setting": "[3]; BEAS2B cells", "value": "> 14.6", "unit": "µM"},
      {"measurement": "% Inhibition of weight loss Day 2", "setting": "[5]; [6]", "value": 24, "unit": "%"},
      {"measurement": "% Inhibition of weight loss Day 3", "setting": "[5]; [6]", "value": 9, "unit": "%"},
      {"measurement": "Body weight loss Day 2", "setting": "[5]; [6]", "value": "4.2 ± 1.2", "unit": "%"},
      {"measurement": "Body weight loss Day 3", "setting": "[5]; [6]", "value": "9.7 ± 2.1", "unit": "%"},
      {"measurement": "% Inhibition of weight loss Day 2", "setting": "[5]; [7]", "value": 35, "unit": "%"},
      {"measurement": "% Inhibition of weight loss Day 3", "setting": "[5]; [7]", "value": 9, "unit": "%"},
      {"measurement": "Body weight loss Day 2", "setting": "[5]; [7]", "value": "3.6 ± 1.2", "unit": "%"},
      {"measurement": "Body weight loss Day 3", "setting": "[5]; [7]", "value": "9.7 ± 3.2", "unit": "%"},
      {"measurement": "% Inhibition of weight loss Day 2", "setting": "[5]; [8]", "value": 49, "unit": "%"},
      {"measurement": "% Inhibition of weight loss Day 3", "setting": "[5]; [8]", "value": 22, "unit": "%"},
      {"measurement": "Body weight loss Day 2", "setting": "[5]; [8]", "value": "2.8 ± 2.4", "unit": "%"},
      {"measurement": "Body weight loss Day 3", "setting": "[5]; [8]", "value": "8.3 ± 6.7", "unit": "%"},
      {"measurement": "MIC", "setting": "[4]", "value": 0.0127, "unit": "µM"}
    ]},
    {"smiles": "CC[C@@H]([C@H](C)O)n1ncn(-c2ccc(N3CCN(c4ccc(OC[C@@H]5CO[C@@](Cn6cncn6)(c6ccc(F)cc6F)C5)cc4)CC3)cc2)c1=O", "note": "[Posaconazole, reference compound]", "values": [
      {"measurement": "MIC", "setting": "[1]", "value": 0.167, "unit": "µM"},
      {"measurement": "MIC", "setting": "[2]", "value": 0.414, "unit": "µM"},
      {"measurement": "CC50 at 1 day", "setting": "[3]; BEAS2B cells", "value": "> 14.3", "unit": "µM"},
      {"measurement": "% Inhibition of weight loss Day 2", "setting": "[5]; [9]", "value": "−15", "unit": "%"},
      {"measurement": "% Inhibition of weight loss Day 3", "setting": "[5]; [9]", "value": 1, "unit": "%"},
      {"measurement": "Body weight loss Day 2", "setting": "[5]; [9]", "value": "5.4 ± 0.4", "unit": "%"},
      {"measurement": "Body weight loss Day 3", "setting": "[5]; [9]", "value": "9.2 ± 4.0", "unit": "%"},
      {"measurement": "% Inhibition of weight loss Day 2", "setting": "[5]; [10]", "value": 17, "unit": "%"},
      {"measurement": "% Inhibition of weight loss Day 3", "setting": "[5]; [10]", "value": 24, "unit": "%"},
      {"measurement": "Body weight loss Day 2", "setting": "[5]; [10]", "value": "3.9 ± 1.3", "unit": "%"},
      {"measurement": "Body weight loss Day 3", "setting": "[5]; [10]", "value": "7.1 ± 1.9", "unit": "%"},
      {"measurement": "% Inhibition of weight loss Day 2", "setting": "[5]; [11]", "value": 17, "unit": "%"},
      {"measurement": "% Inhibition of weight loss Day 3", "setting": "[5]; [11]", "value": 54, "unit": "%"},
      {"measurement": "Body weight loss Day 2", "setting": "[5]; [11]", "value": "3.9 ± 1.3", "unit": "%"},
      {"measurement": "Body weight loss Day 3", "setting": "[5]; [11]", "value": "4.3 ± 1.8", "unit": "%"},
      {"measurement": "MIC", "setting": "[4]", "value": 0.0597, "unit": "µM"}
    ]}
  ]
}
